The values below come from patent US20170216252A1, “ANTI-BACTERIAL PYRUVATE KINASE MODULATOR COMPOUNDS, COMPOSITIONS, USES AND METHODS” (SIMON FRASER UNIVERSITY, priority 2014, published 2017).

The subject of one data set is E. coli (DAS 1-IMP). In words: microbe, parasite or virus in culture. The class given is cell-based, Escherichia coli. Conditions: Escherichia coli, read-out: MIC (μg/mL) C, E. coli (DAS 1-IMP). The protocol: (§1) The antimicrobial activities of PK inhibitor candidates were determined using the 96-well microtiter standard 2-fold serial broth microdilution method as described by CLSI (formerly NCCLS) with the various gram-positive and gram-negative bacteria species mentioned above. Bacteria from a single colony were grown, overnight in either BHI Broth (VRE), mueller hinton broth (S. aureus 29213; MRSA USA400) or L-broth (E. coli, P. aeruginosa, S. typhimuriu, K. Pneumonia and A. baumannii). […] Culture plates were incubated for 18-24 h at 37° C., and optical density at 600 nm (OD600) was measured using a Benchmark Plus™ microplate spectrophotometer (Bio-Rad™). The absorbance control values for the series containing CAMHB and inhibitor were subtracted as background from the corresponding infected wells. The MIC was defined as the lowest concentration of test compound leading to complete inhibition of cell growth in relationship to compound-free control wells as determined by optical density. […] All assays were run in triplicate (Tables 1-6) or duplicate. Experiments were replicated at least twice to verify reproducibility using the above conditions.
(§2) The antimicrobial activity of selected compounds against the gram negative bacteria Klebsiella pneumoniae, Acinetobacter baumannii, E. coli, Pseudomonas aeruginosa and Salmonella typhimurium, as well as additional gram positive bacteria, including drug-resistant strains, was tested according to the procedures provided under “General Methodologies” above.

Data set [1] is described as follows: In vivo tolerability (MTD) study. The protocol:
(§3) The MTD and pharmacokinetic profiles of compounds 123 and 178 administered IV or PO were determined in female CD-1 mice (6-8 weeks of age). Compounds were dissolved in 3% DMSO/6% Solutol® HS 15/10 mM PB (pH7.4) for IV administration and in 3% DMSO/6% Solutol® HS 15/water for oral administration.
For tolerability studies, one animal from each group was administered the lowest dose first and then observed for 60 min. […] On the following day, the next higher dose was administered using the same procedure outlined above. Animals were euthanized 24 hours after the last injection, a cardiac puncture blood sample was collected and processed for plasma. Thigh muscle was collected and a necropsy performed.

Another data set can be described thus: Pharmacokinetic study. It is filed as in vivo, female CD-1 mice. Conditions: female, CD-1, mouse, plasma. The protocol:
as §3
For the pharmacokinetic study, animals were injected with their respective compound at the dose indicated in 11. At their respective time point, animals were deeply anesthetized with isoflurane and then asphyxiated with CO2. Cardiac puncture blood was collected immediately following death, and the blood processed to generate plasma.

A further data set deals with VRE#2 (2010A). In words: Broth microdilution MIC. It is filed as cell-based, vancomycin-resistant Enterococcus. Conditions: Enterococcus; VRE#2 (2010A); read-out: MIC (μg/mL) F. The protocol:
as §1, §2

In the next data set the test system is P. aeruginosa (PA01). The data set can be described thus: Broth microdilution MIC. The class given is cell-based. The settings on record: Pseudomonas aeruginosa. The protocol: as §1, §2
The subject of another data set is MRSA MW2 (USA400). The data set can be described thus: Broth microdilution MIC. It is filed as cell-based. The settings on record: Staphylococcus aureus; MRSA MW2 (USA400); read-out: MIC (μg/mL) G. The protocol:
as §1, §2

Data set [2] has as its system A. baumannii (ATCC 19606). The data set can be described thus: Broth microdilution MIC. The class given is cell-based. The settings on record: Acinetobacter baumannii, ATCC19606; A. baumannii (ATCC 19606); read-out: MIC (μg/mL) B. The protocol: as §1, §2
In another data set the test system is S. pyogenes (ATCC700294). In words: Broth microdilution MIC. The settings on record: Streptococcus pyogenes. It is filed as cell-based. The protocol: as §1, §2
A further data set deals with S. aureus ATCC 29123. The data set can be described thus: Neutropenic mouse Staphylococcus aureus thigh infection model. It is filed as in vivo. Conditions: for median CFU/thigh: 24 h endpoint. The protocol: The antimicrobial activity of compound 178 against S. aureus ATCC 29123 was tested in vivo using the neutropenic mouse Staphylococcus aureus thigh infection model. […] Animals were individually monitored for adverse reactions for 30 min post-infection. […] Vancomycin was administered as a solution in PBS. The test compounds were administered as outlined in Table 12 at 2 and 8 hours post-infection and animals were individually monitored for adverse reactions for 30 min after each injection. All animals were then monitored hourly from 20 hours post infection to the endpoint (t=24 hr post infection). At the indicated timepoint, animals were sacrificed and the injected thigh collected. Quantitative enumeration of bacterial load was determined by plating serial dilutions from homogenized thigh muscles. Homogenized muscle was in a total of 2 mL volume, from which a 1 in 10 dilution was prepared (100 μL into 900 μL saline). From this a series of dilutions were prepared and plated on Mueller Hinton agar plates. […] At the end of this time colony counts were determined and the final CFU per mL calculated.

The structures appear in SMILES notation. Values after ≈ are worked out from the molar mass of the structure shown. A value given as a limit tells only on which side of the number the result lay.

As to `O=C(c1c(-c2cc3cc(Cl)ccc3[nH]2)[nH]c2cc(Br)ccc12)C(F)(F)F` [Compound 178, 1-(6-bromo-5′-chloro-1H,1′H-[2,2′-biindol]-3-yl)-2,2,2-trifluoroethan-1-one], the MIC is more than 64 µg/mL with E. coli (DAS 1-IMP); 1 µg/mL (≈ 2.26 µM) in the data set on VRE#2 (2010A); more than 64 µg/mL in the data set on P. aeruginosa (PA01); 0.5 µg/mL (≈ 1.13 µM) with MRSA MW2 (USA400); more than 64 µg/mL in data set [2]; 1 µg/mL (≈ 2.26 µM) in the data set on S. pyogenes (ATCC700294). Also, the Tolerability entry in data set [1] (IV doses of 30 mg/kg) and in data set [1] (PO doses of 10 mg/kg) was “well tolerated” in each case. Besides, in “Pharmacokinetic study” (10 mg/kg, PO administration, read-out: bioavailability (% F)), the bioavailability came to 21%. The compound also returned a peak concentration (Cmax) in “Pharmacokinetic study” (IV administration at 3 mg/kg) of 19000 ng/mL. In addition, the half-life in “Pharmacokinetic study” (IV administration at 3 mg/kg) was determined as 2.27 h. In the data set on S. aureus ATCC 29123 (all treated groups vs untreated control), the “log reduction in median counts for CFU/thigh” value is on record as not below 1 log. For the same compound, the “median CFU/thigh” value in the data set on S. aureus ATCC 29123 (group 3, 3 mg/kg IV at 2 and 8 h) is on record as 8.27×10^6 CFU/thigh; in the data set with S. aureus ATCC 29123 (group 4, 10 mg/kg IV at 2 and 8 h), 1.38×10^3 CFU/thigh; with S. aureus ATCC 29123 (group 5, PO 10 mg/kg at 2 and 8 h), 1.2×10^2 CFU/thigh. Besides, the “log reduction in median counts” value with S. aureus ATCC 29123 (group 5, PO 10 mg/kg vs untreated control) amounted to 6 log. In addition, in the data set on S. aureus ATCC 29123 (group 5, PO 10 mg/kg, single dose), the “CFU/thigh of one mouse dosed only once” value is recorded as 2.2×10^2 CFU/thigh.
